In US20260078341A1, “TREATMENT OF CANCER USING CHIMERIC ANTIGEN RECEPTOR” (Novartis AG, priority 2014, published 2026):
“Also recorded” adds a separate entry of the source.

System: SKOV3
Test: SKOV3 ovarian tumor model, C4-27z CAR-T cells plus exogenous cytokines
Format: in vivo, NSG mice
Conditions: for antitumor efficacy of cytokine in combination with CAR-T cell injection: 5 μg daily i.p. for 7 days with 5×10^6 C4-27z CAR-T cells

| Substance | antitumor efficacy of cytokine in combination with CAR-T cell injection | CD4+ and CD8+ T cells in peripheral blood (15 days after adoptive transfer) | human T cell number in the tumor (73 days after tumor challenge) |
| --- | --- | --- | --- |
| IL-15: common γ-chain family cytokine, exogenous | best tumor suppression | Highest numbers of CD4+ and CD8+ T cells | highest T cell number in the tumor |
| IL-18: immunostimulatory, proinflammatory cytokine belonging to the IL-1 family | heaviest tumor burden; also recorded: no enhanced effect on antitumor efficacy |  |  |
| IL-21: common γ-chain family cytokine, exogenous | best tumor suppression |  |  |
